# Assay results taken from PMC7506137, “Selective Phosphodiesterase 1 Inhibitor BTTQ Reduces Blood Pressure in Spontaneously Hypertensive and Dahl Salt Sensitive Rats: Role of Peripheral Vasodilation” (Frontiers in Physiology, 2020).
# Where two headings read alike, the source gives them in different places.
# Experiment: Plasma exposure (dried blood spot) after single oral dose
# Format: in vivo
# Conditions: male, Sprague Dawley, rat, whole blood (dried blood spot), po
# Protocol: Male Sprague Dawley rats at 6 to 7 weeks were dosed orally by p.o. gavage with different doses of BTTQ formulated in 1% hydroxyethlycellulose (Dow Corning, Midland, MI, United States) (w/v), 0.25% polysorbate 80 (Sigma-Aldrich, St. Louis, MO, United States) (v/v), and 0.05% antifoam (v/v; Dow Corning, Midland, MI, United States) in purified water. Following dosing, ear temperature was measured by using a k-type thermocouple probe digital thermometer (Cole Parmer) every hour for 6 h and then at 24 h. Blood samples for plasma exposure measurement were obtained at the same time. Blood was collected via a tail snip directly into a 20-μL EDTA-coated capillary and immediately spotted onto a Whatman DMPK-C DBS card (GE Healthcare Bio-Sciences). Tail snips were performed by removing approximately 1 mm of the tail by using a scalpel. Blood flow was initiated by gentle squeezing of the tail. No analgesia or anesthesia was used during blood collections. A single sample and spot were collected per time point. The DBS cards were allowed to dry for approximately 2 h at room temperature, after which the cards were placed in a zip-top bag, stored, and shipped at ambient temperature.
# [1] = 0.03 mg/kg, oral 0.03 mg/kg, FU 0.053, read-out: Unbound Concentration, Mean
# [2] = 0.03 mg/kg, oral 0.03 mg/kg, dried blood spot, read-out: Concentration, Mean
# [3] = 0.03 mg/kg, oral 0.03 mg/kg, FU 0.053, read-out: Unbound Concentration, individual animals
# [4] = 0.03 mg/kg, oral 0.03 mg/kg, dried blood spot, read-out: Concentration, individual animals
# [5] = 0.1 mg/kg, oral 0.1 mg/kg, FU 0.053, read-out: Unbound Concentration, Mean
# [6] = 0.1 mg/kg, oral 0.1 mg/kg, FU 0.053, read-out: Unbound Concentration, individual animals
# [7] = 0.1 mg/kg, oral 0.1 mg/kg, dried blood spot, read-out: Concentration, Mean
# [8] = 0.1 mg/kg, oral 0.1 mg/kg, dried blood spot, read-out: Concentration, individual animals
# [9] = 0.3 mg/kg, oral 0.3 mg/kg, FU 0.053, read-out: Unbound Concentration, Mean
# [10] = 0.3 mg/kg, oral 0.3 mg/kg, FU 0.053, read-out: Unbound Concentration, individual animals
# [11] = 0.3 mg/kg, oral 0.3 mg/kg, dried blood spot, read-out: Concentration, Mean
# [12] = 0.3 mg/kg, oral 0.3 mg/kg, dried blood spot, read-out: Concentration, individual animals
# [13] = 1 mg/kg, oral 1 mg/kg, FU 0.053, read-out: Unbound Concentration, Mean
smiles,measurement,setting,value
"O=c1c2nnc(C3(C4CC4)CC3)n2c2c(n1CC1CC1)CCCC2 [BTTQ, 1-[1,1′-bi(cyclopropyl)-1-yl]-5-(cyclopropylmethyl)-6,7,8,9-tetrahydro[1,2,4]triazolo[4,3-A]quinoxaline-4(5H)-one]",concentration at 1 h,[1],2.52 nM
same,concentration at 1 h,[2],47.5 nM
same,concentration at 2 h,[1],2.66 nM
same,concentration at 2 h,[3],2.17 nM
same,concentration at 2 h,[2],50.2 nM
same,concentration at 2 h,[4],40.9 nM
same,concentration at 3 h,[1],2.23 nM
same,concentration at 3 h,[3],2.04 nM
same,concentration at 3 h,[2],42.1 nM
same,concentration at 3 h,[4],38.4 nM
same,concentration at 4 h,[1],1.81 nM
same,concentration at 4 h,[3],1.67 nM
same,concentration at 4 h,[2],34.2 nM
same,concentration at 4 h,[4],31.6 nM
same,concentration at 5 h,[1],1.5 nM
same,concentration at 5 h,[3],1.86 nM
same,concentration at 5 h,[2],28.3 nM
same,concentration at 5 h,[4],35.1 nM
same,concentration at 6 h,[1],1.16 nM
same,concentration at 6 h,[2],22 nM
same,concentration at 24 h,[1],0 nM
same,concentration at 24 h,[2],0 nM
same,concentration at 1 h,[5],10.6 nM
same,concentration at 1 h,[6],13.2 nM
same,concentration at 1 h,[7],201 nM
same,concentration at 1 h,[8],249 nM
same,concentration at 2 h,[5],10 nM
same,concentration at 2 h,[6],11.7 nM
same,concentration at 2 h,[7],189 nM
same,concentration at 2 h,[8],220 nM
same,concentration at 3 h,[5],8.98 nM
same,concentration at 3 h,[6],8.9 nM
same,concentration at 3 h,[7],169 nM
same,concentration at 3 h,[8],168 nM
same,concentration at 4 h,[5],6.75 nM
same,concentration at 4 h,[6],7.1 nM
same,concentration at 4 h,[7],127 nM
same,concentration at 4 h,[8],134 nM
same,concentration at 5 h,[5],5.13 nM
same,concentration at 5 h,[6],5.99 nM
same,concentration at 5 h,[7],96.9 nM
same,concentration at 5 h,[8],113 nM
same,concentration at 6 h,[5],4.61 nM
same,concentration at 6 h,[6],4.62 nM
same,concentration at 6 h,[7],87 nM
same,concentration at 6 h,[8],87.1 nM
same,concentration at 24 h,[5],0.462 nM
same,concentration at 24 h,[6],2.31 nM
same,concentration at 24 h,[7],8.7 nM
same,concentration at 24 h,[8],43.5 nM
same,concentration at 1 h,[9],27.7 nM
same,concentration at 1 h,[10],24.2 nM
same,concentration at 1 h,[11],523 nM
same,concentration at 1 h,[12],456 nM
same,concentration at 2 h,[9],23.7 nM
same,concentration at 2 h,[10],19.3 nM
same,concentration at 2 h,[11],447 nM
same,concentration at 2 h,[12],364 nM
same,concentration at 3 h,[9],16.6 nM
same,concentration at 3 h,[10],14.7 nM
same,concentration at 3 h,[11],314 nM
same,concentration at 3 h,[12],278 nM
same,concentration at 4 h,[9],11.8 nM
same,concentration at 4 h,[10],12.3 nM
same,concentration at 4 h,[11],223 nM
same,concentration at 4 h,[12],232 nM
same,concentration at 5 h,[9],8.68 nM
same,concentration at 5 h,[10],8.75 nM
same,concentration at 5 h,[11],164 nM
same,concentration at 5 h,[12],165 nM
same,concentration at 6 h,[9],6.73 nM
same,concentration at 6 h,[10],7.26 nM
same,concentration at 6 h,[11],127 nM
same,concentration at 6 h,[12],137 nM
same,concentration at 24 h,[9],0 nM
same,concentration at 24 h,[11],0 nM
same,concentration at 1 h,[13],92.5 nM
same,concentration at 1 h,"1 mg/kg, oral 1 mg/kg, dried blood spot, read-out: Concentration, Mean",1750 nM
same,concentration at 2 h,[13],87.6 nM
